Test results published in paper PMC8263017, “Cryo-EM Determination of Eravacycline-Bound Structures of the Ribosome and the Multidrug Efflux Pump AdeJ of Acinetobacter baumannii” (mBio, 2021).

Tests used:
[1] = biological target: T1, AdeJ multidrug efflux pump (Acinetobacter baumannii, UniProt Q2FD94); experiment: single-particle cryo-EM structure ([…] A); details: 10 uM AdeJ-nanodisc with 20 uM eravacycline (dihydrochloride), 1 h; distal drug-binding site of the binding-state protomer, one molecule per trimer; no Mg2+ seen at the site
T1 construct: full-length, 1,058 residues (1,046 built per protomer); N-terminal 6xHis tag (pET15b); expressed in E. coli BL21(DE3) delta-acrB; DDM-purified, reconstituted in MSP 1E3D1 lipidic nanodiscs; homotrimer

[2] = biological target: Acinetobacter drug efflux (Ade)J multidrug efflux pump of A. baumannii Ab0057 (Acinetobacter baumannii Ab0057) (UniProt Q2FD94); experiment: cryo-EM structure; single-particle cryo-EM of 10 μM AdeJ in lipidic nanodiscs, incubated with 20 μM eravacycline for 1 h; two classes in one sample (apo-AdeJ trimer and AdeJ-Era trimer); 20 mM Tris-HCl pH 7.5, 100 mM NaCl

Compound	single-particle cryo-EM structure (2.86 A) [1]	stoichiometry N [2]
CN(C)[C@@H]1C(=O)C(C(N)=O)=C(O)[C@@]2(O)C(=O)C3=C(O)c4c(O)c(NC(=O)CN5CCCC5)cc(F)c4C[C@H]3C[C@@H]12 [eravacycline]	large density corresponds to the bound Era drug located at the distal multidrug-binding site	
Acinetobacter drug efflux (Ade)J multidrug efflux pump of A. baumannii Ab0057 (from UniProt Q2FD94 1-1058) (natural protein)		3
